Experimental data as given in US11298355B2 (Aerovate Therapeutics, Inc., priority 2019, dated 2022).

Assay: Thermal stability and polymorphism of imatinib salts
Assay type: physicochemical
Conditions: imatinib salt forms

Compound	thermal stability and polymorphic forms
tartrate	suitable thermal stability and few or single polymorphic forms
malonate	suitable thermal stability and few or single polymorphic forms
malate	suitable thermal stability and few or single polymorphic forms
O=S(=O)(O)CCO [isethionate]	suitable thermal stability and few or single polymorphic forms
